Here are results for 20 compounds from ChEMBL document CHEMBL5321271, “Identification of Novel Quinolin-2(1H)-ones as Phosphodiesterase 1 Inhibitors for the Treatment of Inflammatory Bowel Disease” (J Med Chem, 2023).

In data set [1] the target is Dual specificity calcium/calmodulin-dependent 3',5'-cyclic nucleotide phosphodiesterase 1C (Homo sapiens, UniProt Q14123). Put plainly: Inhibition of PDE1C (147 to 531 residues) (unknown origin) using 3H-cGMP as substrate incubated for 15 mins by liquid scintillation counter analysis.
In data set [2] the target is High affinity cGMP-specific 3',5'-cyclic phosphodiesterase 9A (Homo sapiens, UniProt O76083). The data set is described as follows: Inhibition of PDE9A (181 to 506 residues) (unknown origin) using 3H-cGMP as substrate incubated for 15 mins by liquid scintillation counter analysis.
Data set [3] deals with Mus musculus. The data set is described as follows: Anti-inflammatory bowel disease activity in DSS-induced inflammatory bowel disease C57BL/6 mouse model assessed as decrease in diarrhoea by measuring disease activity index score at 25 mg/kg,ip BID for 7 days. The data set is classed as functional, organism-based. Conditions: time 7.0 day.
Data set [4] can be described thus: Toxicity in DSS-induced inflammatory bowel disease C57BL/6 mouse model assessed as body weight change at 25 mg/kg,ip BID for 7 days. The data set is classed as organism-based. Conditions: in vivo, 168 h, time 7 day.
The test system of data set [5] is Mus musculus. Put plainly: Anti-inflammatory bowel disease activity in DSS-induced inflammatory bowel disease C57BL/6 mouse model assessed as decrease in fecal occult blood by measuring disease activity index score at 25 mg/kg,ip BID for 7 days by Hemo-occult test. It is filed as functional, organism-based. Conditions: time 7.0 day.
Data set [6] has as its system Mus musculus. The data set is described as follows: Anti-inflammatory bowel disease activity in DSS-induced inflammatory bowel disease C57BL/6 mouse model assessed as decrease in body weight loss by measuring disease activity index score at 25 mg/kg,ip BID for 7 days. Particulars: time 7.0 day. It is filed as functional, organism-based.
The test system of data set [7] is Mus musculus. Put plainly: Anti-inflammatory bowel disease activity in DSS-induced inflammatory bowel disease C57BL/6 mouse model assessed as increase in colon length at 25 mg/kg,ip BID for 7 days by vernier calipers analysis. Particulars: time 7.0 day. The data set is classed as functional, organism-based.
In data set [8] the target is cGMP-specific 3',5'-cyclic phosphodiesterase (Homo sapiens, UniProt O76074). The data set is described as follows: Inhibition of PDE5A1 (535 to 860 residues) (unknown origin) using 3H-cGMP as substrate incubated for 15 mins by liquid scintillation counter analysis.
The target in data set [9] is cAMP and cAMP-inhibited cGMP 3',5'-cyclic phosphodiesterase 10A (Homo sapiens, UniProt Q9Y233). Put plainly: Inhibition of PDE10A (449 to 770 residues) (unknown origin) using 3H-cAMP as substrate incubated for 15 mins by liquid scintillation counter analysis.
In data set [10] the test system is Mus musculus. The data set is described as follows: Anti-inflammatory bowel disease activity in DSS-induced inflammatory bowel disease C57BL/6 mouse model assessed as reduction in histological inflammation in colon at 5 mg/kg,ip BID for 7 days by Hematoxylin and eosin staining based microscopy. It is filed as functional, organism-based. Conditions: time 7.0 day.

Data set [11] deals with High affinity 3',5'-cyclic-AMP phosphodiesterase 7A (Homo sapiens, UniProt Q13946). Put plainly: Inhibition of PDE7A (130 to 482 residues) (unknown origin) using 3H-cAMP as substrate incubated for 15 mins by liquid scintillation counter analysis.
In data set [12] the test system is RAW264.7. Put plainly: Anti-inflammatory activity in mouse RAW264.7 cells assessed as reduction in LPS-induced IL-1beta mRNA expression at 5 to 10 uM incubated for 24 hrs by qPCR analysis. Conditions: dose 5-10 µM. The data set is classed as functional, cell-based. In general terms: Real-time PCR tracks product formation cycle by cycle.
The subject of data set [13] is Mus musculus. The data set is described as follows: Anti-inflammatory bowel disease activity in DSS-induced inflammatory bowel disease C57BL/6 mouse model assessed as increase in colon length at 5 mg/kg,ip BID for 7 days by vernier calipers analysis. It is filed as functional, organism-based. Conditions: time 7.0 day.
Data set [14] concerns the target cGMP-inhibited 3',5'-cyclic phosphodiesterase 3A (Homo sapiens, UniProt Q14432). The data set is described as follows: Inhibition of PDE3A (679 to 1087 residues) (unknown origin) using 3H-cAMP as substrate incubated for 15 mins by liquid scintillation counter analysis.
Data set [15] has as its system Mus musculus. The data set is described as follows: Anti-inflammatory bowel disease activity in DSS-induced inflammatory bowel disease C57BL/6 mouse model assessed as decrease in body weight loss by measuring disease activity index score at 5 mg/kg,ip BID for 7 days. It is filed as functional, organism-based. Conditions: time 7.0 day.
Data set [16] concerns Mus musculus. Put plainly: Anti-inflammatory bowel disease activity in DSS-induced inflammatory bowel disease C57BL/6 mouse model assessed as decrease in diarrhoea by measuring disease activity index score at 5 mg/kg,ip BID for 7 days. The data set is classed as functional, organism-based. Conditions: time 7.0 day.
Data set [17] can be described thus: Metabolic stability in rat liver microsomes assessed as half life.
The test system of data set [18] is RAW264.7. Put plainly: Anti-inflammatory activity in mouse RAW264.7 cells assessed as reduction in LPS-induced iNOS mRNA expression at 5 to 10 uM incubated for 24 hrs by qPCR analysis. The data set is classed as functional, cell-based. Conditions: dose 5-10 µM.
For data set [19], the target named is High affinity cAMP-specific and IBMX-insensitive 3',5'-cyclic phosphodiesterase 8A (Homo sapiens, UniProt O60658). Put plainly: Inhibition of PDE8A (480 to 820 residues) (unknown origin) using 3H-cAMP as substrate incubated for 15 mins by liquid scintillation counter analysis.
Data set [20] deals with RAW264.7. Put plainly: Anti-inflammatory activity in mouse RAW264.7 cells assessed as reduction in LPS-induced IL-6 mRNA expression at 5 to 10 uM incubated for 24 hrs by qPCR analysis. The data set is classed as functional, cell-based. Conditions: dose 5-10 µM.
Data set [21] has as its system RAW264.7. The data set is described as follows: Anti-inflammatory activity in mouse RAW264.7 cells assessed as reduction in LPS-induced TNF-alpha mRNA expression at 5 to 10 uM incubated for 24 hrs by qPCR analysis. The data set is classed as functional, cell-based. Particulars: dose 5-10 µM.
Data set [22] relates to Mus musculus. Put plainly: Anti-inflammatory bowel disease activity in DSS-induced inflammatory bowel disease C57BL/6 mouse model assessed as protection of colon crypt structures at 5 mg/kg,ip BID for 7 days by Hematoxylin and eosin staining based microscopy. The data set is classed as functional, organism-based. Conditions: time 7.0 day.
In data set [23] the test system is Mus musculus. Put plainly: Anti-inflammatory bowel disease activity in DSS-induced inflammatory bowel disease C57BL/6 mouse model assessed as decrease in fecal occult blood by measuring disease activity index score at 5 mg/kg,ip BID for 7 days. The data set is classed as functional, organism-based. Particulars: time 7.0 day.
Data set [24] concerns the target 3',5'-cyclic-AMP phosphodiesterase 4D (Homo sapiens, UniProt Q08499). The data set is described as follows: Inhibition of PDE4D (86 to 413 residues) (unknown origin) using 3H-cAMP as substrate incubated for 15 mins by liquid scintillation counter analysis.
Data set [25] relates to RAW264.7. Put plainly: Anti-inflammatory activity in mouse RAW264.7 cells assessed as reduction in LPS-induced IL-1alpha mRNA expression at 5 to 10 uM incubated for 24 hrs by qPCR analysis. It is filed as functional, cell-based. Particulars: dose 5-10 µM.
Data set [26] concerns the target cGMP-dependent 3',5'-cyclic phosphodiesterase (Homo sapiens, UniProt O00408). The data set is described as follows: Inhibition of PDE2A (580 to 919 residues) (unknown origin) using 3H-cGMP as substrate incubated for 15 mins by liquid scintillation counter analysis.
For data set [27], the system named is RAW264.7. Put plainly: Anti-inflammatory activity in mouse RAW264.7 cells assessed as reduction in LPS-induced NO release at 5 to 10 uM incubated for 24 hrs by Griess method. It is filed as functional, cell-based. Conditions: dose 5-10 µM. On the technique in general: Nitrite, measured by Griess reagent, commonly stands in for NO production.

Calls of active or inactive are those of the source. The calls are words filed in the database; no cut-off is given here. Where only a bound is given, the exact number is not on record here.

Dual specificity calcium/calmodulin-dependent 3',5'-cyclic nucleotide phosphodiesterase 1C, sequence (Q14123 whole entry, the tested form may be a part): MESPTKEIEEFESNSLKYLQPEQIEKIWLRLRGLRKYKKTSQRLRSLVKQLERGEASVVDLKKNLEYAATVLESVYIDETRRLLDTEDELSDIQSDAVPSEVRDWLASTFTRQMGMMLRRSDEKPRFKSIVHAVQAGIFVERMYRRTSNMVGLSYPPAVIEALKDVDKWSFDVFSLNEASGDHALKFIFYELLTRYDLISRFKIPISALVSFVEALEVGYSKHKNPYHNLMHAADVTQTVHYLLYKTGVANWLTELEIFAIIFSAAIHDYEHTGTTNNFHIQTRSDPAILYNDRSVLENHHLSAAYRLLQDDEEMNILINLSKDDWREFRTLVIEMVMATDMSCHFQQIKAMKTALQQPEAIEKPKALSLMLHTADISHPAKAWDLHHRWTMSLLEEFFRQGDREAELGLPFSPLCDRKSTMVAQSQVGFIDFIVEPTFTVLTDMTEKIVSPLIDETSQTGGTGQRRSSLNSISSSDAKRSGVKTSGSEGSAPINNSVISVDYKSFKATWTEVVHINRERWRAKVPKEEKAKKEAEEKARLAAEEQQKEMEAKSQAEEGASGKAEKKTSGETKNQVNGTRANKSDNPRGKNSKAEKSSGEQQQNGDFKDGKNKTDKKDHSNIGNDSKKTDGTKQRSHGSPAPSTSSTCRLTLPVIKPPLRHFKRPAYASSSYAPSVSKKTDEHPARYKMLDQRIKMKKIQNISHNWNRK
High affinity cGMP-specific 3',5'-cyclic phosphodiesterase 9A, sequence (O76083 whole entry, the tested form may be a part): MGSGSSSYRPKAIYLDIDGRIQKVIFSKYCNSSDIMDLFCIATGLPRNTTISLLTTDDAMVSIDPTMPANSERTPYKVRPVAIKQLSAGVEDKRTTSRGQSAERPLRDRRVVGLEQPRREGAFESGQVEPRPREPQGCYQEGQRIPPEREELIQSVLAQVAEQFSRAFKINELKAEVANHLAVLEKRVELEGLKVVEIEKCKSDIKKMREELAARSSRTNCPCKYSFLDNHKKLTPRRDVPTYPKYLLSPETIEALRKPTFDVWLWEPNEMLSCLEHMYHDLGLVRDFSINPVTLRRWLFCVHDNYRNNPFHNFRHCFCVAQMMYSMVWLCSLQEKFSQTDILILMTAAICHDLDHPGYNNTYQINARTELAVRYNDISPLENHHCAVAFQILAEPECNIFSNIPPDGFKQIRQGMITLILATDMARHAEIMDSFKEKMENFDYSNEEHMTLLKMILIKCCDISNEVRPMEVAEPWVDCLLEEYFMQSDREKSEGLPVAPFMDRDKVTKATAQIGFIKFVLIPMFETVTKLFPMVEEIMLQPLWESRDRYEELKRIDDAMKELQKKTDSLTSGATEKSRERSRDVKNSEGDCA
High affinity cAMP-specific and IBMX-insensitive 3',5'-cyclic phosphodiesterase 8A, sequence (O60658 whole entry, the tested form may be a part): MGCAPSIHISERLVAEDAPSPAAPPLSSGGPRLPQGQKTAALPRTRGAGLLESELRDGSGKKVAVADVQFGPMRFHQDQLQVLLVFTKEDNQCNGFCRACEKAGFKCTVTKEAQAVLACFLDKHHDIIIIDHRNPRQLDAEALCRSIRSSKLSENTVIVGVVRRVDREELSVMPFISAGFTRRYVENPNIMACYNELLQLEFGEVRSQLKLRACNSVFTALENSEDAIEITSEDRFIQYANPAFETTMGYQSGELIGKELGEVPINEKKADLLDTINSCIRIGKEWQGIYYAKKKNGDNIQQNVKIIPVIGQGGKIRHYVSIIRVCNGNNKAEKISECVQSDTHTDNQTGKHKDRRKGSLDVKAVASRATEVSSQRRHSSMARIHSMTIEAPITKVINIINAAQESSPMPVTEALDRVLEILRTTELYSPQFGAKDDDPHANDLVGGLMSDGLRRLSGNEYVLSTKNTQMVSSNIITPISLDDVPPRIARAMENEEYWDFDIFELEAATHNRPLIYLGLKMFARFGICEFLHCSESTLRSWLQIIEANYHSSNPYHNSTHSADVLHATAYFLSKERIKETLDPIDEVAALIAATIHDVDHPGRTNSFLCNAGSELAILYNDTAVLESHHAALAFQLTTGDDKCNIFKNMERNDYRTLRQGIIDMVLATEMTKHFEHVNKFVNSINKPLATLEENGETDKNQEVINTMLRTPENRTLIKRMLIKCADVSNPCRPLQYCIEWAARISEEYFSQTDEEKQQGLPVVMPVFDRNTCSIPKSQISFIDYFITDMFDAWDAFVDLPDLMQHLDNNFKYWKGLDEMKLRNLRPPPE
cGMP-inhibited 3',5'-cyclic phosphodiesterase 3A, sequence (Q14432 whole entry, the tested form may be a part): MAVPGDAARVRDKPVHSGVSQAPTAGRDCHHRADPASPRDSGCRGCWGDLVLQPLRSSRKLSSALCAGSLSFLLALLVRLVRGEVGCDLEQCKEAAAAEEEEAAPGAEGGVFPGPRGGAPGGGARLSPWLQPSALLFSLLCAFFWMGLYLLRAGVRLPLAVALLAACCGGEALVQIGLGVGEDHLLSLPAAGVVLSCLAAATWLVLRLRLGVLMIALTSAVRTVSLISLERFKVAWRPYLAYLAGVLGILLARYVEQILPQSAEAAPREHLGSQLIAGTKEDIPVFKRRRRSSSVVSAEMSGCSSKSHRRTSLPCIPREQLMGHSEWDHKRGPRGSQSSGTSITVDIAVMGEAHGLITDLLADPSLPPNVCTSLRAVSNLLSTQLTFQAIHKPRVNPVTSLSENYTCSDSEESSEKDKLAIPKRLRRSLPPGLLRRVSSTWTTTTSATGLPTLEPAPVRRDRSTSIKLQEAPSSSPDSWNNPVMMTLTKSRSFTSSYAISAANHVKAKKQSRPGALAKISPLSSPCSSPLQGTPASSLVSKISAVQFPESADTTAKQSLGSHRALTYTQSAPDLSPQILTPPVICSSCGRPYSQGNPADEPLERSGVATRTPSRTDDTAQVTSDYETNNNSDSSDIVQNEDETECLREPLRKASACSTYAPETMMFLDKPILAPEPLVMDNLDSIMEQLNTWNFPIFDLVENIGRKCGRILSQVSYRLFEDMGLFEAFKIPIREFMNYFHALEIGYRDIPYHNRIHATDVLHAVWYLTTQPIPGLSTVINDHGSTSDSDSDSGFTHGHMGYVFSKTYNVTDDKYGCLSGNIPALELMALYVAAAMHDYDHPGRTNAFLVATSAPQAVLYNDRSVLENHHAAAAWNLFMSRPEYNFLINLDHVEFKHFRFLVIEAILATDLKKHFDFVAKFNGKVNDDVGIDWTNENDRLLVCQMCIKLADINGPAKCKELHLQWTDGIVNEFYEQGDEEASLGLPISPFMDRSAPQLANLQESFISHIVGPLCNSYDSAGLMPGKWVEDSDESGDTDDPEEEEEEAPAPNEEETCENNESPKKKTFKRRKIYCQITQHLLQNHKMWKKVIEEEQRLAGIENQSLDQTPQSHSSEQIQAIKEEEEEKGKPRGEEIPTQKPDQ
3',5'-cyclic-AMP phosphodiesterase 4D, sequence (Q08499 whole entry, the tested form may be a part): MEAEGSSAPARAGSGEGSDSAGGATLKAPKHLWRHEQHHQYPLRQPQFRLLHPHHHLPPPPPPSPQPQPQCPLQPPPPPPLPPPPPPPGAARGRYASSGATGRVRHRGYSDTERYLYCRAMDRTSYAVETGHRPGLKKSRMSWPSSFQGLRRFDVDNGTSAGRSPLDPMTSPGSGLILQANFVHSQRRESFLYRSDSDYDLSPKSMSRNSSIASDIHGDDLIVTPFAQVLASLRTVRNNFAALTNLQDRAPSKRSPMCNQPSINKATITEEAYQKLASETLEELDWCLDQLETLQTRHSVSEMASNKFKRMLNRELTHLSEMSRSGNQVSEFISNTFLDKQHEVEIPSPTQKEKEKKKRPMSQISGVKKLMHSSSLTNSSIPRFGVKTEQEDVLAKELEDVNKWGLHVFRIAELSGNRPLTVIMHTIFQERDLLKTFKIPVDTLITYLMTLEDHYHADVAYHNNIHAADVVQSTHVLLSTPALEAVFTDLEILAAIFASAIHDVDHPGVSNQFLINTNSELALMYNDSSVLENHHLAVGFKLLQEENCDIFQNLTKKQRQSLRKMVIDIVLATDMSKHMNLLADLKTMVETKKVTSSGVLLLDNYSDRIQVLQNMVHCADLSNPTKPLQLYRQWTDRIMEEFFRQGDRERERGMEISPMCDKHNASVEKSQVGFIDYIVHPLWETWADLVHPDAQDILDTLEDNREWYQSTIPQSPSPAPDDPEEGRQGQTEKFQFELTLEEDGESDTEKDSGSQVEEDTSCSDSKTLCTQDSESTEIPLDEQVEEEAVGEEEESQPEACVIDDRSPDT
High affinity 3',5'-cyclic-AMP phosphodiesterase 7A, sequence (Q13946 whole entry, the tested form may be a part): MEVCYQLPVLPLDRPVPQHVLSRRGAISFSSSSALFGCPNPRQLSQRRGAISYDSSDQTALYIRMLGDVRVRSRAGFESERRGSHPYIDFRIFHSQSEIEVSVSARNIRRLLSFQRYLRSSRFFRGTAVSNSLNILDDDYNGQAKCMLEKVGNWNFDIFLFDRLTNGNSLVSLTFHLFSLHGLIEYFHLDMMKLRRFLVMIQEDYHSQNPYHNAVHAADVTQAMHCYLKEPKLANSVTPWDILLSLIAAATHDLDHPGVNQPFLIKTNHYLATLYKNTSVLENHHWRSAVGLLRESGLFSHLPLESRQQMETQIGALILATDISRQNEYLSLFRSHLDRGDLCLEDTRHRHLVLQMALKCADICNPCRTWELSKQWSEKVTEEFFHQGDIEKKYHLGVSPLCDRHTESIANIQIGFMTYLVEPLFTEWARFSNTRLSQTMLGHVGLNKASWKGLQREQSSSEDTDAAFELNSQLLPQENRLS

For `Cc1ccc(-c2c(C#N)c(=O)[nH]c3ccccc23)cc1`, the IC50 in data set [1] is 450 nM; in data set [2], 8.9 nM.

Consider `C[C@@H](Nc1ccc2c(C3CCCC3)c(C#N)c(=O)n(CC3CCCC3)c2c1)c1ccccn1`, for which, in data set [1], the half-maximal inhibitory concentration (IC50) was 38 nM.

As to `Cc1ccc(-c2c(C#N)c(=O)n(Cc3ccccc3)c3ccccc23)cc1`, the IC50 in data set [1] was 48 nM; in data set [2], 5830 nM.

Consider `CCCCNc1ccc2c(-c3ccc(C)cc3)c(C#N)c(=O)n(Cc3ccccc3)c2c1`, for which the concentration for half-maximal inhibition (IC50) in data set [1] is more than 1000 nM.

Regarding `Cc1ccc(-c2c(C#N)c(=O)n(Cc3ccccc3)c3c(NC(C)c4ccccn4)cccc23)cc1` (configuration not stated), the IC50 in data set [1] was more than 1000 nM.

For `Cc1ccc(-c2c(C#N)c(=O)n(CC3CCCC3)c3cc(NC(C)c4ccccn4)ccc23)cc1` (configuration not stated), in [1], the IC50 came out at 25 nM.

With `OCCN(CCO)c1nc(N2CCCCC2)c2nc(N(CCO)CCO)nc(N3CCCCC3)c2n1` [DIPYRIDAMOLE], the result in data set [3], in data set [5], in data set [6] and in [7] was Active. The Activity result in data set [4] is recorded as “Toxic”.

`N#Cc1c(C2CCCC2)c2ccc(NCc3ccc(F)cn3)cc2n(CC2CCCC2)c1=O`: the IC50 in [8] was 2180 nM; in data set [1], 15 nM; in data set [9] it was 3030 nM; in data set [2], more than 10000 nM; in [11] it was 2300 nM; in data set [14], more than 10000 nM. Further, the IC50 is more than 10000 nM in data set [19], 610 nM in data set [24] and more than 10000 nM in [26]. Moreover, the result in data set [10], in data set [13], in data set [15], in [16], in [22] and in data set [23] was Active. For the same compound, the Activity entry in data set [12], in [18], in [20], in data set [21], in data set [25] and in data set [27] was “Dose-Dependent Effect” throughout. Also, in [17], the half-life amounted to 1.6 min.

Consider `Cc1ccc(-c2c(C#N)c(=O)n(Cc3ccncc3)c3cc(NC(C)c4ccccn4)ccc23)cc1` (configuration not stated), for which, in [1], the IC50 was more than 1000 nM.

With `CC(Nc1ccc2c(C(C)(C)C)c(C#N)c(=O)n(Cc3ccccc3)c2c1)c1ccccn1` (configuration not stated), the IC50 in [1] turned out to be 83 nM.

Take `N#Cc1c(C2CCCC2)c2ccc(NCC3CCOCC3)cc2n(CC2CCCC2)c1=O`: the IC50 in data set [1] is more than 1000 nM.

As to `Cc1ccc(-c2c(C#N)c(=O)n(Cc3ccccc3)c3cc(NC(C)c4ccccn4)ccc23)cc1` (configuration not stated), the IC50 in [1] stood at 15 nM.

Turning to `CC(Nc1ccc2c(C3CCCC3)c(C#N)c(=O)n(Cc3ccccc3)c2c1)c1ccccn1` (configuration not stated), the IC50 in [1] amounted to 20 nM.

Consider `Cc1ccc(-c2c(C#N)c(=O)n(Cc3ccccc3)c3ccc(NC(C)c4ccccn4)cc23)cc1` (configuration not stated), for which, in data set [1], the IC50 turned out to be 24 nM.

On to `CC(C)c1c(C#N)c(=O)n(Cc2ccccc2)c2cc(NC(C)c3ccccn3)ccc12` (configuration not stated), for which the IC50 in data set [1] was 22 nM.

As to `C[C@H](Nc1ccc2c(C3CCCC3)c(C#N)c(=O)n(CC3CCCC3)c2c1)c1ccccn1`, the IC50 in data set [1] is 16 nM.

As for `Cc1ccc(-c2c(C#N)c(=O)n(Cc3ccccc3)c3cc(NC(C)c4ccccc4)ccc23)cc1` (configuration not stated), in [1], the IC50 worked out at 55 nM.

Turning to `CCCCCn1c(=O)c(C#N)c(-c2ccc(C)cc2)c2ccc(NC(C)c3ccccn3)cc21` (configuration not stated), the half-maximal inhibitory concentration (IC50) in [1] was more than 1000 nM.

On to `CC(Nc1ccc2c(C3CC3)c(C#N)c(=O)n(Cc3ccccc3)c2c1)c1ccccn1` (configuration not stated), for which the IC50 in data set [1] was 218 nM.

As to `CC(Nc1ccc2c(C3CCCC3)c(C#N)c(=O)n(CC3CCCC3)c2c1)c1ccccn1` (configuration not stated), in [1], the 50% inhibitory concentration (IC50) was found to be 19 nM.

What is called IC50 is the midpoint of a concentration-inhibition curve. The half-life is how long it takes for the measured level to halve.
